# Earlier results, collected in patent publication US20110295365A1, “Anti-viral compositions and methods for administration” (Searete LLC, a limited liability corporation of the State …, priority 2010, published 2011).
# What was measured:
# [1] = in vivo
Compound,inhibition of viral entry (varicella zoster virus),passage across the placenta from mother to child [1]
O=C[C@@H](O)[C@@H](O)[C@H](O)[C@H](O)COP(=O)(O)O [mannose 6-phosphate],inhibition of viral entry,
enfuvirtide,,do not efficiently pass from mother to child
heparin,inhibition of viral entry,
